Laboratory results as given in patent publication US20160022751A1, “NOVEL COMPOSITION FOR TREATING ALZHEIMER'S DISEASE AND IMPROVING COGNITIVE FUNCTION OF ALZHEIMER'S PATIENTS” (GANGNEUNG-WONJU NATIONAL UNIVERSITY INDUSTRY ACADEMY …, priority 2014, published 2016).

Assays:
SRA = assay: In vivo SRA mRNA expression in brain tissues (RT-PCR); settings: mice administrated with Rg3 (FIG. 24A)
Description: Total RNA extracts from HMO6 cells or perfused brain tissue were prepared using the Trizol method (Invitrogen). cDNA was synthesized from RNA by reverse transcription of 1 μg total RNA using the Improm-II reverse transcription system (Promega, Wis., USA) and oligo dT primers in a total volume of 20 μl. PCR amplification was performed using the primers listed in Table 1 (Bioneer, Korea). qPCR reactions were run on a Rotor-Gene 6000 (Corbett Research, Sydney, Australia) using a SensiMix™ SYBR Hi-ROX Kit (Bioline, UK) in 20 μl reaction mixtures. Each real-time-PCR master mix contained 10 μl 2× enzyme master mix, 7 μl RNase free water, 1 μl of each primer (10 pM each), and 1 μl diluted template. The PCR was performed with an initial pre-incubation step for 15 min at 95° C., followed by 45 cycles of 95° C. for 15 s, annealing at 52° C. for 15 s, and extension at 72° C. for 10 s. […] Relative sample expression levels were calculated using Rotor-Gene 6000 Series Software 1.7 and were expressed relative to β-actin for mice or glyceraldehyde 3-phosphate dehydrogenase for HMO6 cells and corrected for between-run variability. Data for the experimental samples are expressed as a percentage of the internal control gene. […]

Aβ42 = assay: Passive avoidance trials (PAT) in Aβ42-infused animals; type: in vivo; settings: Aβ42 rats administered Rg3 (FIG. 25)
Description: Male BALB/c mice (10 weeks old) were purchased from Samtaco (Korea), and were adapted to laboratory conditions (temperature: 20±2° C., relative humidity: 50%, light/dark cycle: 12 h) for 1 week. Five-week-old male Sprague-Dawley rats were obtained from Daehan-Biolink (Korea) for learning and memory testing. The animals (n=5/group) were maintained at a constant temperature (23±2° C.), relative humidity, 55±10%, and 12-h light/dark cycle. The animals were fed a standard rodent chow and purified water ad libitum. Lyophilized Aβ42 (0.5 mg, Bachem Torrance, USA) was resuspended in PBS (pH 7.4) by shaking for 7 days at room temperature to prepare the fibrillar-aggregated Aβ42 (fAβ42). At 10 weeks of age, mice were anesthetized, and 1 μl fAβ42 (350 μM stock concentration) was stereotaxically injected unilaterally into the parietal cortex (anterior 1.7 mm, lateral 1 mm, and ventral 1 mm to the bregma above the hippocampus within 1 min) (Mohajeri et al., J. Biol. Chem., 277: 35460-35465, 2002)
The present inventor performed learning and memory tests using rats in order to investigate whether Rg3 can ameliorate symptoms of Alzheimer's model animals in deed. […] The latency time of stay in the light room from lights-on was recorded following an electric shock (1 mA for 2 s) in the dark compartment. […] The mean time spent to escape onto the platform was recorded.

clathrin = assay: Clathrin immunocytochemistry in HMO6 cells; type: cell-based, human; settings: Rg3 5 μg/ml, 24 h, immunocytochemistry (FIG. 20)
Description: FIG. 20 is a fluorescence microscopic image showing a result of immunocytochemical analysis investigating the expression of caveolin and clathrin in HMO6 cells treated with or without Rg3. HMO6 cells were treated with Rg3 (5 μg/ml) for 24 h after plated on chamber slides and then the cells were stained with primary antibodies binding specifically to caveolin and clathrin, respectively and counterstained with DAPI. The length of scale bar represents 10 μm.
The present inventors investigated whether ginsenosides can induce the expression of SRA, clathrin, caveolin 1, NEP or IDE and the differentiation of neurons actually through immunocytochemical analysis (ICC) and microscopic observations. Specifically, Cultured HMO6 cells were fixed in 4% paraformaldehyde (in 1×PBS) for 15 min, washed twice with 1×PBS supplemented with 100 mM glycine for 5 min, and incubated with permeabilization buffer consisting of 0.1% Triton X-100 (Sigma-Aldrich, USA) in 1×PBS for 30 min at room temperature. Blocking was performed with 1% bovine serum albumin (BSA, Sigma-Aldrich, USA) for 30 min at room temperature. Then, SRA, clathrin, caveolin1, NEP, or IDE mouse monoclonal antibody (1:200; Santa Cruz Biotechnology, USA) was added to 1% BSA in PBS with Tween 20 (PBST) and incubated for 2 h at room temperature. […]

SMILES: CC(C)=CCC[C@](C)(O)[C@H]1CC[C@]2(C)[C@@H]1[C@H](O)C[C@@H]1[C@@]3(C)CC[C@H](O[C@@H]4O[C@H](CO)[C@@H](O)[C@H](O)[C@H]4O[C@@H]4O[C@H](CO)[C@@H](O)[C@H](O)[C@H]4O)C(C)(C)[C@@H]3CC[C@]12C [ginsenoside Rg3]
- expression of SRA mRNA in brain tissues (SRA): increased
- learning and memory functions, passive avoidance (Aβ42): maintained learning and memory functions at 4-5 weeks
- clathrin expression (clathrin): highly expressed
